From PMC5385491, “Antiviral activity of chlorogenic acid against influenza A (H1N1/H3N2) virus and its inhibition of neuraminidase” (Scientific Reports, 2017)

Target: T1, NA of influenza A/PuertoRico/8/1934 (H1N1) virus (Influenza A virus (A/Puerto Rico/8/1934(H1N1)), UniProt P03468)
T1 construct: native viral NA in allantoic fluid of infected embryonated chicken eggs (whole virus, not purified)
Assay: fluorescence NA inhibition assay with MU-NANA
Type: biochemical
Details: MU-NANA substrate (30 μl of 80 μM in 100 μl); 10 min preincubation, 30 min reaction, 37 °C; virus-containing allantoic fluid

T1 sequence (P03468 whole entry): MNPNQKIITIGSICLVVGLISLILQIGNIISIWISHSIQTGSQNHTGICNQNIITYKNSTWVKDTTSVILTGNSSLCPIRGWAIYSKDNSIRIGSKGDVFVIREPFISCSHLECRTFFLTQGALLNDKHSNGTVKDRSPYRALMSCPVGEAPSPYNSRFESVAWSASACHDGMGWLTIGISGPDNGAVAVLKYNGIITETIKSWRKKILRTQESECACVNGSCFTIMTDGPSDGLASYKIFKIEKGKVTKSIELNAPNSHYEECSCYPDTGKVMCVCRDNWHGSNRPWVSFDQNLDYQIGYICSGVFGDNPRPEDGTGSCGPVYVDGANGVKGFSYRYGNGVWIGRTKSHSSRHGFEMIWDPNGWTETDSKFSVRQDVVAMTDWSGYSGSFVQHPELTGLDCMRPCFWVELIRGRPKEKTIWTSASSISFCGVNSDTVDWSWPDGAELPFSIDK

O=C(/C=C/c1ccc(O)c(O)c1)O[C@@H]1C[C@](O)(C(=O)O)C[C@@H](O)[C@H]1O [CHA, chlorogenic acid]
IC50: 22.1 ± 1.07 µM
